According to patent US10835533B2, “1 -((3S,4R)-4-(3-fluorophenyl)-1-(2-methoxyethyl)pyrrolidin-3-yl)-3-(4-methyl-3-(2-methylpyrimidin-5-yl)-1-phenyl-1H-pyrazol-5-yl)urea as a TrkA kinase inhibitor” (Array BioPharma Inc., priority 2014, dated 2020):

Assays:
[1] = molecular target: T1, GST-tagged recombinant human p38α (Homo sapiens, UniProt Q16539); assay: p38α LanthaScreen Eu Kinase Binding Assay (Example G); conditions: TrkA versus p38α binding
T1 construct: GST-tagged cytoplasmic domain from Invitrogen, Catalog No. PV3305; purchased Invitrogen PV3305
T1 sequence (Q16539 whole entry, the tested form may be a part): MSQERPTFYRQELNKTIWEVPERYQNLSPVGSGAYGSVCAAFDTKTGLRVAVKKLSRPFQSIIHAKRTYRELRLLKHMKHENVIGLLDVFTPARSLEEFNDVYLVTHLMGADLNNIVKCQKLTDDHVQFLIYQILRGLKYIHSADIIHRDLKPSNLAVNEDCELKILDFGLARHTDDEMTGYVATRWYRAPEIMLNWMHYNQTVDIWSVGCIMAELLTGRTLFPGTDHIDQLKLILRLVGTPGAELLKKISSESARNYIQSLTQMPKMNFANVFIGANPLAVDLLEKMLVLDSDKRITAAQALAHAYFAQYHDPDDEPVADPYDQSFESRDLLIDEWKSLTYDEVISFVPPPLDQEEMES
Description: The p38α binding activity of Compound 1 was determined in a p38α LanthaScreen™ Eu Kinase Binding Assay. […] Three fold serial dilutions of Compound 1 in DMSO were added to a final percentage of 2% DMSO. After 60-minute incubation at 22° C., the reaction was measured using the EnVision multimode plate reader (PerkinElmer) via TR-FRET dual wavelength detection at […]. The percent of control was calculated using a ratiometric emission factor. The IC50 value was determined by fitting a four parameter model to the percent of control data.

off-target kinases = assay: KinaseProfiler off-target kinase profiling, full kinase panel (Example H); format: biochemical; conditions: 10 μM, ATP near the Km
Description: Compound 1 was tested for off-target kinase activity at a concentration of 10 μM by Millipore, Inc. in their KinaseProfiler™ service against all the kinases available in their full kinase panel. Compound 1 was run in duplicate at a concentration of ATP near the Km for each individual kinase according to Millipore's specifications. Data are reported as percent of control (POC) and are the average of the two replicates.

TrkA = assay: Estimated inhibition of TrkA after oral dose of 10 mg/kg in rats (FIGS. 3 and 4); conditions: oral dose of 10 mg/kg in rats; relative to Compound 2 and Compound 3; calculated from plasma concentration and IC50
Description: FIGS. 3 and 4 illustrate the estimated inhibition of TrkA for Compound 1 after an oral dose of 10 mg/kg in rats of relative to Compound 2, and for Compound 1 relative to Compound 3, respectively. The curves in FIGS. 3 and 4 were calculated using the following equation: […]
where Imin and Imax are the minimum and maximum possible inhibition of the target, respectively, IC50 is the concentration at which the target is inhibited by 50%, C is the concentration of the inhibitor, and n is the Hill slope.

HIPK1 = molecular target: T2, HIPK1 (Homo sapiens, UniProt Q86Z02); assay: KinaseProfiler kinase profiling; format: biochemical; conditions: 10 μM, ATP near Km
T2 construct: purchased Millipore, Inc. (KinaseProfiler service)
Procedure, shortened: (§1)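 10 μM cpd, duplicate, [ATP] ≈ Km per kinase. Output = POC, mean of n=2.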

Met = molecular target: T3, Met (Homo sapiens, UniProt P08581); assay: KinaseProfiler kinase profiling; format: biochemical; conditions: 10 μM, ATP near Km
T3 construct: purchased Millipore, Inc. (KinaseProfiler service)
T3 sequence (P08581 25-1390): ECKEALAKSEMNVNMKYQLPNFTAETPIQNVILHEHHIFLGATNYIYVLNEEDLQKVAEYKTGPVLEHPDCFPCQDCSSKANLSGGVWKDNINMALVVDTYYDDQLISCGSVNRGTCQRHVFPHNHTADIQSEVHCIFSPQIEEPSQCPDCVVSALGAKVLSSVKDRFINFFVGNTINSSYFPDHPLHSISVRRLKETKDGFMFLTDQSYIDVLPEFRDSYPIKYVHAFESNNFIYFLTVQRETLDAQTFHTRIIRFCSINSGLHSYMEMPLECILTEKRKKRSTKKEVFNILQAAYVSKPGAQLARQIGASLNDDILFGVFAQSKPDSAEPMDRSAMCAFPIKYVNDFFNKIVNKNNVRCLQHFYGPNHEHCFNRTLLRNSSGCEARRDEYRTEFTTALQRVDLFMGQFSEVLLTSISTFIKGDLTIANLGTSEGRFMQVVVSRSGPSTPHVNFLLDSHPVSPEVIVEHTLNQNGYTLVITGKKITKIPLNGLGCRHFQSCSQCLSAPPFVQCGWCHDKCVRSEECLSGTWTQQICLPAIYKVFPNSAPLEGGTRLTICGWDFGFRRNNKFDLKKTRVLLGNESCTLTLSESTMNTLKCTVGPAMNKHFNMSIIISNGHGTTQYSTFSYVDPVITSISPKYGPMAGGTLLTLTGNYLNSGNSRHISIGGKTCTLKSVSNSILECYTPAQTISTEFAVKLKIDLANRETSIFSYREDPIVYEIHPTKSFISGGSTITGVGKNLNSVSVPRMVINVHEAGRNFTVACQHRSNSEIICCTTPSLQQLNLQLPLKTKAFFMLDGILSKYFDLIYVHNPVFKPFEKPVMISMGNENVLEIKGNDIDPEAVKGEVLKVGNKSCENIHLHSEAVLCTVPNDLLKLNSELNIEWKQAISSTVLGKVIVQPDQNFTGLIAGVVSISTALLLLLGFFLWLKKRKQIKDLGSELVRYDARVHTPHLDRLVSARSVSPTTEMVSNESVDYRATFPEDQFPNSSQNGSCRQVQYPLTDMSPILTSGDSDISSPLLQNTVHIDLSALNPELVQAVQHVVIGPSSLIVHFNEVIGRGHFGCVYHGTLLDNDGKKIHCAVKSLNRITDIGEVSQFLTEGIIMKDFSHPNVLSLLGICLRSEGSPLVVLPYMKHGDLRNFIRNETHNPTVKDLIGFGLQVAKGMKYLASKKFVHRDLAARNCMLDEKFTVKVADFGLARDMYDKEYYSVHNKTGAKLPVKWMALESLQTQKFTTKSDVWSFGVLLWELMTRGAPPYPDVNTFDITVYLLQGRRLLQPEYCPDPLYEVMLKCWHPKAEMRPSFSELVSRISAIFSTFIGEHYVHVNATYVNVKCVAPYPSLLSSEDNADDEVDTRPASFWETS
Procedure, shortened: as §1

Lyn = molecular target: T4, Lyn (Homo sapiens, UniProt P07948); assay: KinaseProfiler kinase profiling; format: biochemical; conditions: 10 μM, ATP near Km
T4 construct: purchased Millipore, Inc. (KinaseProfiler service)
Procedure, shortened: as §1

CDK7/cyclinH/MAT1 = molecular target: T5, CDK7/cyclinH/MAT1 (Homo sapiens, UniProt P50613); assay: KinaseProfiler kinase profiling; format: biochemical; conditions: 10 μM, ATP near Km
T5 construct: purchased Millipore, Inc. (KinaseProfiler service)
Procedure, shortened: as §1

AMPK(A1/B1/G1) = molecular target: T6, AMPK(A1/B1/G1) (Homo sapiens, UniProt Q13131); assay: KinaseProfiler kinase profiling; format: biochemical; conditions: 10 μM, ATP near Km
T6 construct: purchased Millipore, Inc. (KinaseProfiler service)
Procedure, shortened: as §1

Yes = molecular target: T7, Yes (Homo sapiens, UniProt P07947); assay: KinaseProfiler kinase profiling; format: biochemical; conditions: 10 μM, ATP near Km
T7 construct: purchased Millipore, Inc. (KinaseProfiler service)
T7 sequence (P07947 whole entry): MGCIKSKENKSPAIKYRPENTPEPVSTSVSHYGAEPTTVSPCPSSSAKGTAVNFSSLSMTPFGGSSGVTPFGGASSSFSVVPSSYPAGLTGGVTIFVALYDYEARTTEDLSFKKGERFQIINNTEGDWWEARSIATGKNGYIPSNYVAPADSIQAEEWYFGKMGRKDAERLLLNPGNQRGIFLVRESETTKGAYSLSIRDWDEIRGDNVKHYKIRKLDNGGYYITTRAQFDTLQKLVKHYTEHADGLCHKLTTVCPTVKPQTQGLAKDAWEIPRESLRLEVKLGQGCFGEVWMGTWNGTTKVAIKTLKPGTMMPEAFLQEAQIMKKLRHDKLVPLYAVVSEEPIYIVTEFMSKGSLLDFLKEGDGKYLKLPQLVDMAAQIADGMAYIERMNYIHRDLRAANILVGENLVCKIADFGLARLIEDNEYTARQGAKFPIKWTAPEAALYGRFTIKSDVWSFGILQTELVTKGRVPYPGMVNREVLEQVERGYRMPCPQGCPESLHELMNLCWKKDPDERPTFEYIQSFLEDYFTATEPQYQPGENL
Procedure, shortened: as §1

Rse = molecular target: T8, Rse (Homo sapiens, UniProt Q06418); assay: KinaseProfiler kinase profiling; format: biochemical; conditions: 10 μM, ATP near Km
T8 construct: purchased Millipore, Inc. (KinaseProfiler service)
Procedure, shortened: as §1

ERK2 = molecular target: T9, ERK2 (Homo sapiens, UniProt P28482); assay: KinaseProfiler kinase profiling; format: biochemical; conditions: 10 μM, ATP near Km
T9 construct: purchased Millipore, Inc. (KinaseProfiler service)
T9 sequence (P28482 whole entry): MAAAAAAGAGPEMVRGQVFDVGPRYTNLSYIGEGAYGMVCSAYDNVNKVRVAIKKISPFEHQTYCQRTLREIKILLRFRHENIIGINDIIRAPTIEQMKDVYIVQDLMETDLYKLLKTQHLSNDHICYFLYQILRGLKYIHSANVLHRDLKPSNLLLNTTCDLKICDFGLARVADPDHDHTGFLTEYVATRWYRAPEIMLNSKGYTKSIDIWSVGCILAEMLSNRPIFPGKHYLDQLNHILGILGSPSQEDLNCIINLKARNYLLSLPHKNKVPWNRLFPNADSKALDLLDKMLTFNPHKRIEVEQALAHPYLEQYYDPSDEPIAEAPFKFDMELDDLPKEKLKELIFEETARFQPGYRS
Procedure, shortened: as §1

IRAK1 = molecular target: T10, IRAK1 (Homo sapiens, UniProt P51617); assay: KinaseProfiler kinase profiling; format: biochemical; conditions: 10 μM, ATP near Km
T10 construct: purchased Millipore, Inc. (KinaseProfiler service)
T10 sequence (P51617 whole entry): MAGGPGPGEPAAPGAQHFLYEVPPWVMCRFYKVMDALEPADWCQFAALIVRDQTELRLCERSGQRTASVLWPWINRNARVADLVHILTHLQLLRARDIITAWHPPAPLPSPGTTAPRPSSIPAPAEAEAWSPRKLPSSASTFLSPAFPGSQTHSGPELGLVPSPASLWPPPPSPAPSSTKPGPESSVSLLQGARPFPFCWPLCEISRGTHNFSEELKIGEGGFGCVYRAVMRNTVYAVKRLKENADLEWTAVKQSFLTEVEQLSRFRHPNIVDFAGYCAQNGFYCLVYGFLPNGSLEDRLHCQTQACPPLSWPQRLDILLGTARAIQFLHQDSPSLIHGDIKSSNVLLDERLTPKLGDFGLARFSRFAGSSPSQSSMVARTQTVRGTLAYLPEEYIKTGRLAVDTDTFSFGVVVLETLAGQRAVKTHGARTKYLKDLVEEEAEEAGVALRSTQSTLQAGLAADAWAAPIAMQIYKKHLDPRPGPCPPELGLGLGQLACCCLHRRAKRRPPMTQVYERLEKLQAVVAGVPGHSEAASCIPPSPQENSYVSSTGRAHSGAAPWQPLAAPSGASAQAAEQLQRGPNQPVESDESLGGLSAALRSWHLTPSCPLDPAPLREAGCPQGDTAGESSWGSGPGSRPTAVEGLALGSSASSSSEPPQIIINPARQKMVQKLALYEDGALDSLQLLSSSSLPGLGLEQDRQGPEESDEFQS
Procedure, shortened: as §1

AKT1 = molecular target: T11, AKT1 (Homo sapiens, UniProt P31749); assay: KinaseProfiler kinase profiling; format: biochemical; conditions: 10 μM, ATP near Km
T11 construct: purchased Millipore, Inc. (KinaseProfiler service)
T11 sequence (P31749 whole entry): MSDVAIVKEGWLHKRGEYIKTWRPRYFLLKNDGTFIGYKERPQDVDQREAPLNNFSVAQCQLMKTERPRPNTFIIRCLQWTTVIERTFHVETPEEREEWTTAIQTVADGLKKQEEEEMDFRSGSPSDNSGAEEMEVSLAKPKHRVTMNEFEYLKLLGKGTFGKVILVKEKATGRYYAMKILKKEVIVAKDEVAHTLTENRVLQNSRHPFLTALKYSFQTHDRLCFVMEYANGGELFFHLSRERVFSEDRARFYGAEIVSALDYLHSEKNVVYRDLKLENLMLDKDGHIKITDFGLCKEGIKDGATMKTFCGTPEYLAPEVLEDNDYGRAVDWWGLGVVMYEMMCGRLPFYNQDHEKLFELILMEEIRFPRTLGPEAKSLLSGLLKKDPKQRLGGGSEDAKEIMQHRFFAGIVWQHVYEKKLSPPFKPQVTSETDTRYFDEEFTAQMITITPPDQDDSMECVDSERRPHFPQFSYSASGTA
Procedure, shortened: as §1

CDK5/p35 = molecular target: T12, CDK5/p35 (Homo sapiens, UniProt Q00535); assay: KinaseProfiler kinase profiling; format: biochemical; conditions: 10 μM, ATP near Km
T12 construct: purchased Millipore, Inc. (KinaseProfiler service)
T12 sequence (Q00535 whole entry): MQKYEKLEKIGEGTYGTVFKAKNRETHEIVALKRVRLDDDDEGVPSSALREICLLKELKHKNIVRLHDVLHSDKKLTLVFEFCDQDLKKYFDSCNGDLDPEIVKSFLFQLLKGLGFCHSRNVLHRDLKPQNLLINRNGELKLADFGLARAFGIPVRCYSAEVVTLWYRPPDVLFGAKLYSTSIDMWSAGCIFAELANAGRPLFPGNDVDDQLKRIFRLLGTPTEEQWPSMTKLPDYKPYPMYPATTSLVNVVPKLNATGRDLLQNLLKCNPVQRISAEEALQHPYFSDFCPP
T12 sequence (Q15078 whole entry partner): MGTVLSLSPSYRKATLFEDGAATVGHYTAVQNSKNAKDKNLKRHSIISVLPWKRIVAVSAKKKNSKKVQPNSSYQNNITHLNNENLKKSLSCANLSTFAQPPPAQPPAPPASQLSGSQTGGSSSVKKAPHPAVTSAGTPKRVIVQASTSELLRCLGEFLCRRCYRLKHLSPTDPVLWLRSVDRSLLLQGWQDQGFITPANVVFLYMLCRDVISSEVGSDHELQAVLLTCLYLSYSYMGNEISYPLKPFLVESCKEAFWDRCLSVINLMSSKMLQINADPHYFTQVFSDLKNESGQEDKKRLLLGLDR
Procedure, shortened: as §1

MAP3K5 = molecular target: T13, MAP3K5 (Homo sapiens, UniProt Q99683); assay: KinaseProfiler kinase profiling; format: biochemical; conditions: 10 μM, ATP near Km
T13 construct: purchased Millipore, Inc. (KinaseProfiler service)
Procedure, shortened: as §1

p38delta = molecular target: T14, p38delta (Homo sapiens, UniProt O15264); assay: KinaseProfiler kinase profiling; format: biochemical; conditions: 10 μM, ATP near Km
T14 construct: purchased Millipore, Inc. (KinaseProfiler service)
T14 sequence (O15264 whole entry): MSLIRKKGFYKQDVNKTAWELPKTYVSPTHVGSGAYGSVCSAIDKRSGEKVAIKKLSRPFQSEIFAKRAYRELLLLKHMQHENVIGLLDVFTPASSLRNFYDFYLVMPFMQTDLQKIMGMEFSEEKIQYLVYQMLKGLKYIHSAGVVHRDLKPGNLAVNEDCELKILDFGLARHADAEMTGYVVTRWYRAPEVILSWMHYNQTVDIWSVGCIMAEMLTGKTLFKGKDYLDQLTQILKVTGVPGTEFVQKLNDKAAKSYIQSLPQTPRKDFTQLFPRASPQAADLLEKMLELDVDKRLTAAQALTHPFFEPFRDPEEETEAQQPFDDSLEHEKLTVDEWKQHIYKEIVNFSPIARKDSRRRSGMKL
Procedure, shortened: as §1

Compound: COCCN1C[C@@H](NC(=O)Nc2c(C)c(-c3cnc(C)nc3)nn2-c2ccccc2)[C@H](c2cccc(F)c2)C1 [Compound 1, 1-((3S,4R)-4-(3-fluorophenyl)-1-(2-methoxyethyl)pyrrolidin-3-yl)-3-(4-methyl-3-(2-methylpyrimidin-5-yl)-1-phenyl-1H-pyrazol-5-yl)urea]
- fold more potent against TrkA than p38α [1]: 1000 fold
- activity against off-target kinases (off-target kinases): largely inactive
- estimated inhibition of TrkA (TrkA): higher
- Avg POC (HIPK1): 98.5 POC
- Avg POC (Met): 124.5 POC
- Avg POC (Lyn): 104.5 POC
- Avg POC (CDK7/cyclinH/MAT1): 99 POC
- Avg POC (AMPK(A1/B1/G1)): 102.5 POC
- Avg POC (Yes): 98.5 POC
- Avg POC (Rse): 102.5 POC
- Avg POC (ERK2): 100 POC
- Avg POC (IRAK1): 103 POC
- Avg POC (AKT1): 104 POC
- Avg POC (CDK5/p35): 97 POC
- Avg POC (MAP3K5): 101 POC
- Avg POC (p38delta): 105 POC
